Patent US8008456B2, “Compositions containing, methods involving, and uses of non-natural amino acids and polypeptides” (Ambrx, Inc., priority 2004, dated 2011)

Test: pH stability tests
Format: physicochemical
Method: This example provides the results of pH stability tests that were conducted on certain illustrative non-natural amino acids as an aid for predicting their properties for incorporation into non-natural amino acid polypeptides.

Question: For `COCCOC(=O)NCCO/N=C(\C)CNC(=O)c1ccccc1`, which pH stability (pH 4.0, 1 hour) is on record?
Answer: Its pH stability is 5%.

Question: What about the pH stability (pH 4.0, 1 day) of the same compound?
Answer: The pH stability was 7%.

Question: What about the pH stability (pH 4.0, 2 days) of the same compound?
Answer: Its pH stability is 8%.

Question: And the pH stability (pH 4.0, 3 days)?
Answer: Its pH stability is 10%.

Question: And the pH stability (pH 4.0, 4 days)?
Answer: The pH stability was 11%.

Question: And the pH stability (pH 4.0, 5 days)?
Answer: Its pH stability is 11%.

Question: And the pH stability (pH 4.0, 6 days)?
Answer: The pH stability was 11%.

Question: What about the pH stability (pH 4.0, 7 days) of the same compound?
Answer: The pH stability was 11%.

Question: And the pH stability (pH 4.0, 10 days)?
Answer: Its pH stability is 11%.

Question: What about the pH stability (pH 5.0, 1 hour) of the same compound?
Answer: Its pH stability is <1%.

Question: And the pH stability (pH 5.0, 1 day)?
Answer: Its pH stability is 3%.

Question: And the pH stability (pH 5.0, 2 days)?
Answer: The pH stability was 3%.

Question: And the pH stability (pH 5.0, 3 days)?
Answer: The pH stability was 5%.

Question: What about the pH stability (pH 5.0, 4 days) of the same compound?
Answer: The pH stability was 7%.

Question: And the pH stability (pH 5.0, 5 days)?
Answer: The pH stability was 7%.

Question: What about the pH stability (pH 5.0, 6 days) of the same compound?
Answer: The pH stability was 7%.

Question: And the pH stability (pH 5.0, 7 days)?
Answer: Its pH stability is 8%.

Question: And the pH stability (pH 5.0, 10 days)?
Answer: The pH stability was 8%.

Question: What about the pH stability (pH 6.5, 1 hour) of the same compound?
Answer: The pH stability was <1%.

Question: And the pH stability (pH 6.5, 1 day)?
Answer: Its pH stability is <1%.

Question: What about the pH stability (pH 6.5, 2 days) of the same compound?
Answer: The pH stability was <1%.

Question: And the pH stability (pH 6.5, 3 days)?
Answer: Its pH stability is 2%.

Question: And the pH stability (pH 6.5, 4 days)?
Answer: Its pH stability is 2%.

Question: And the pH stability (pH 6.5, 5 days)?
Answer: The pH stability was 2%.

Question: And the pH stability (pH 6.5, 6 days)?
Answer: Its pH stability is 2%.

Question: What about the pH stability (pH 6.5, 7 days) of the same compound?
Answer: The pH stability was 2%.

Question: And the pH stability (pH 6.5, 10 days)?
Answer: The pH stability was 2%.

Question: And the pH stability (pH 7.4, 1 hour)?
Answer: The pH stability was <1%.

Question: And the pH stability (pH 7.4, 1 day)?
Answer: The pH stability was <1%.

Question: And the pH stability (pH 7.4, 2 days)?
Answer: Its pH stability is <1%.

Question: And the pH stability (pH 7.4, 3 days)?
Answer: Its pH stability is <1%.

Question: And the pH stability (pH 7.4, 4 days)?
Answer: The pH stability was <1%.

Question: And the pH stability (pH 7.4, 5 days)?
Answer: Its pH stability is <1%.

Question: And the pH stability (pH 7.4, 6 days)?
Answer: The pH stability was <1%.

Question: What about the pH stability (pH 7.4, 7 days) of the same compound?
Answer: Its pH stability is <1%.

Question: What about the pH stability (pH 7.4, 10 days) of the same compound?
Answer: The pH stability was <1%.

Question: And the pH stability (pH 8.0, 1 hour)?
Answer: The pH stability was 9%.

Question: And the pH stability (pH 8.0, 1 day)?
Answer: The pH stability was 24%.

Question: What about the pH stability (pH 8.0, 2 days) of the same compound?
Answer: Its pH stability is 30%.

Question: And the pH stability (pH 8.0, 3 days)?
Answer: Its pH stability is 30%.

Question: What about the pH stability (pH 8.0, 4 days) of the same compound?
Answer: The pH stability was 30%.

Question: And the pH stability (pH 8.0, 5 days)?
Answer: Its pH stability is 30%.

Question: What about the pH stability (pH 8.0, 6 days) of the same compound?
Answer: The pH stability was 30%.

Question: And the pH stability (pH 8.0, 7 days)?
Answer: The pH stability was 33%.

Question: What about the pH stability (pH 8.0, 10 days) of the same compound?
Answer: The pH stability was 34%.

Question: For `COCCOCNCCO/N=C(\C)CC(=O)c1ccccc1` [drawing 139], which pH stability (pH 4.0, 1 hour) is on record?
Answer: The pH stability was 4.0%.

Question: What about the pH stability (pH 4.0, 1 day) of the same compound?
Answer: The pH stability was <1%.

Question: And the pH stability (pH 4.0, 2 days)?
Answer: The pH stability was <1%.

Question: What about the pH stability (pH 4.0, 3 days) of the same compound?
Answer: The pH stability was <1%.

Question: What about the pH stability (pH 4.0, 4 days) of the same compound?
Answer: The pH stability was <1%.

Question: And the pH stability (pH 4.0, 5 days)?
Answer: Its pH stability is <1%.

Question: And the pH stability (pH 4.0, 6 days)?
Answer: The pH stability was <1%.

Question: What about the pH stability (pH 4.0, 7 days) of the same compound?
Answer: Its pH stability is <1%.

Question: What about the pH stability (pH 4.0, 10 days) of the same compound?
Answer: Its pH stability is <1%.

Question: And the pH stability (pH 5.0, 1 hour)?
Answer: The pH stability was 5.0%.

Question: What about the pH stability (pH 5.0, 1 day) of the same compound?
Answer: The pH stability was <1%.

Question: What about the pH stability (pH 5.0, 2 days) of the same compound?
Answer: The pH stability was <1%.

Question: And the pH stability (pH 5.0, 3 days)?
Answer: The pH stability was <1%.

Question: And the pH stability (pH 5.0, 4 days)?
Answer: The pH stability was <1%.

Question: What about the pH stability (pH 5.0, 5 days) of the same compound?
Answer: The pH stability was <1%.

Question: What about the pH stability (pH 5.0, 6 days) of the same compound?
Answer: Its pH stability is <1%.

Question: What about the pH stability (pH 5.0, 7 days) of the same compound?
Answer: Its pH stability is <1%.

Question: What about the pH stability (pH 5.0, 10 days) of the same compound?
Answer: Its pH stability is <1%.

Question: What about the pH stability (pH 6.5, 1 hour) of the same compound?
Answer: Its pH stability is 6.5%.

Question: What about the pH stability (pH 6.5, 1 day) of the same compound?
Answer: The pH stability was <1%.

Question: What about the pH stability (pH 6.5, 2 days) of the same compound?
Answer: The pH stability was <1%.

Question: And the pH stability (pH 6.5, 3 days)?
Answer: The pH stability was <1%.

Question: And the pH stability (pH 6.5, 4 days)?
Answer: The pH stability was <1%.

Question: What about the pH stability (pH 6.5, 5 days) of the same compound?
Answer: The pH stability was <1%.

Question: What about the pH stability (pH 6.5, 6 days) of the same compound?
Answer: Its pH stability is <1%.

Question: What about the pH stability (pH 6.5, 7 days) of the same compound?
Answer: Its pH stability is <1%.

Question: What about the pH stability (pH 6.5, 10 days) of the same compound?
Answer: Its pH stability is <1%.

Question: And the pH stability (pH 7.4, 1 hour)?
Answer: Its pH stability is 7.4%.

Question: And the pH stability (pH 7.4, 1 day)?
Answer: Its pH stability is <1%.

Question: And the pH stability (pH 7.4, 2 days)?
Answer: The pH stability was <1%.

Question: And the pH stability (pH 7.4, 3 days)?
Answer: The pH stability was <1%.

Question: What about the pH stability (pH 7.4, 4 days) of the same compound?
Answer: The pH stability was <1%.

Question: What about the pH stability (pH 7.4, 5 days) of the same compound?
Answer: The pH stability was <1%.

Question: What about the pH stability (pH 7.4, 6 days) of the same compound?
Answer: Its pH stability is <1%.

Question: And the pH stability (pH 7.4, 7 days)?
Answer: The pH stability was <1%.

Question: What about the pH stability (pH 7.4, 10 days) of the same compound?
Answer: The pH stability was <1%.

Question: And the pH stability (pH 8.0, 1 hour)?
Answer: The pH stability was 8.0%.

Question: And the pH stability (pH 8.0, 1 day)?
Answer: Its pH stability is <1%.

Question: What about the pH stability (pH 8.0, 2 days) of the same compound?
Answer: Its pH stability is <1%.

Question: And the pH stability (pH 8.0, 3 days)?
Answer: The pH stability was <1%.

Question: And the pH stability (pH 8.0, 4 days)?
Answer: The pH stability was <1%.

Question: And the pH stability (pH 8.0, 5 days)?
Answer: The pH stability was <1%.

Question: What about the pH stability (pH 8.0, 6 days) of the same compound?
Answer: The pH stability was <1%.

Question: What about the pH stability (pH 8.0, 7 days) of the same compound?
Answer: The pH stability was <1%.

Question: What about the pH stability (pH 8.0, 10 days) of the same compound?
Answer: Its pH stability is <1%.

Question: What does the source list for `COCCOC(=O)NCCO/N=C(\C)C(=O)Nc1ccccc1` [drawing 134]?
Answer: pH stability (pH 4.0, 1 hour): <1%; pH stability (pH 4.0, 1 day): <1%; pH stability (pH 4.0, 2 days): <1%; pH stability (pH 4.0, 3 days): <1%; pH stability (pH 4.0, 4 days): <1%; pH stability (pH 4.0, 5 days): <1%; pH stability (pH 4.0, 6 days): <1%; pH stability (pH 4.0, 7 days): <1%; pH stability (pH 4.0, 10 days): <1%; pH stability (pH 5.0, 1 hour): <1%; pH stability (pH 5.0, 1 day): <1%; pH stability (pH 5.0, 2 days): <1%; pH stability (pH 5.0, 3 days): <1%; pH stability (pH 5.0, 4 days): <1%; pH stability (pH 5.0, 5 days): <1%; pH stability (pH 5.0, 6 days): <1%; pH stability (pH 5.0, 7 days): <1%; pH stability (pH 5.0, 10 days): <1%; pH stability (pH 6.5, 1 hour): <1%; pH stability (pH 6.5, 1 day): <1%; pH stability (pH 6.5, 2 days): <1%; pH stability (pH 6.5, 3 days): <1%; pH stability (pH 6.5, 4 days): <1%; pH stability (pH 6.5, 5 days): <1%; pH stability (pH 6.5, 6 days): <1%; pH stability (pH 6.5, 7 days): <1%; pH stability (pH 6.5, 10 days): <1%; pH stability (pH 7.4, 1 hour): <1%; pH stability (pH 7.4, 1 day): <1%; pH stability (pH 7.4, 2 days): <1%; pH stability (pH 7.4, 3 days): <1%; pH stability (pH 7.4, 4 days): <1%; pH stability (pH 7.4, 5 days): <1%; pH stability (pH 7.4, 6 days): <1%; pH stability (pH 7.4, 7 days): <1%; pH stability (pH 7.4, 10 days): <1%; pH stability (pH 8.0, 1 hour): <1%; pH stability (pH 8.0, 1 day): <1%; pH stability (pH 8.0, 2 days): <1%; pH stability (pH 8.0, 3 days): <1%; pH stability (pH 8.0, 4 days): <1%; pH stability (pH 8.0, 5 days): <1%; pH stability (pH 8.0, 6 days): <1%; pH stability (pH 8.0, 7 days): <1%; pH stability (pH 8.0, 10 days): <1%
